Legend:
[1] = test system: A549-ACE2 infected with SARS-CoV-2; experiment: cell count relative to DMSO; higher = less toxic; settings: 24 h
Caco-2 [2] = experiment: cell viability relative to DMSO; higher = less toxic; settings: 72 h
Calu-3 [3] = experiment: as above; settings: 72 h
HepG2 [4] = experiment: as above; settings: 72 h
U2OS [5] = experiment: as above; settings: 72 h
Vero E6 [6] = experiment: as above; settings: 72 h
[7] = test system: A549-ACE2 infected with SARS-CoV-2; experiment: SARS-CoV-2 infection rate relative to DMSO; higher = more infection; settings: 24 h
A549-ACE2 [8] = experiment: phospholipidosis EC50; higher = less potent phospholipidosis inducer
A549-ACE2 [9] = experiment: drug-induced phospholipidosis relative to tamoxifen; higher = more phospholipidosis
[10] = test system: A549-ACE2 infected with SARS-CoV-2; experiment: morphology score (similarity to uninfected cells); higher = more like uninfected cells; settings: 24 h
Caco-2 [11] = experiment: relative viability EC50 (midpoint between 100% and the lowest measured viability); higher = less toxic; settings: 72 h
Calu-3 [12] = experiment: as above; settings: 72 h
HepG2 [13] = experiment: as above; settings: 72 h
U2OS [14] = experiment: as above; settings: 72 h
Vero E6 [15] = experiment: as above; settings: 72 h
Caco-2 [16] = experiment: drug sensitivity score (DSS) for viability; higher = more toxic; extreme values may be limits of the assay; settings: 72 h
Calu-3 [17] = experiment: as above; settings: 72 h
HepG2 [18] = experiment: as above; settings: 72 h
U2OS [19] = experiment: as above; settings: 72 h
Vero E6 [20] = experiment: as above; settings: 72 h

Cn1cc(C2=C(c3ccc(Cl)cc3Cl)C(=O)NC2=O)c2ccccc21
Settings	SARS-CoV-2 infection rate [%]	cell count [%]	cell viability [%]	morphology score	phospholipidosis EC50 [µM]
A549-ACE2 [8], 24 h	–	–	–	–	6.83
A549-ACE2 [8], 48 h	–	–	–	–	1.87
A549-ACE2 [8], 72 h	–	–	–	–	3.22
Caco-2 [2], 1 nM	–	–	105	–	–
Caco-2 [2], 10 nM	–	–	99.9	–	–
Caco-2 [2], 100 nM	–	–	92.5	–	–
Caco-2 [2], 1000 nM	–	–	105	–	–
Caco-2 [2], 10000 nM	–	–	93.1	–	–
Calu-3 [3], 1 nM	–	–	113	–	–
Calu-3 [3], 10 nM	–	–	108	–	–
Calu-3 [3], 100 nM	–	–	99.5	–	–
Calu-3 [3], 1000 nM	–	–	122	–	–
Calu-3 [3], 10000 nM	–	–	103	–	–
HepG2 [4], 1 nM	–	–	98.8	–	–
HepG2 [4], 10 nM	–	–	95	–	–
HepG2 [4], 100 nM	–	–	100	–	–
HepG2 [4], 1000 nM	–	–	95.1	–	–
HepG2 [4], 10000 nM	–	–	87.2	–	–
U2OS [5], 1 nM	–	–	100	–	–
U2OS [5], 10 nM	–	–	97.9	–	–
U2OS [5], 100 nM	–	–	97.8	–	–
U2OS [5], 1000 nM	–	–	100	–	–
U2OS [5], 10000 nM	–	–	97.8	–	–
Vero E6 [6], 1 nM	–	–	99.1	–	–
Vero E6 [6], 10 nM	–	–	98	–	–
Vero E6 [6], 100 nM	–	–	98.4	–	–
Vero E6 [6], 1000 nM	–	–	96.2	–	–
Vero E6 [6], 10000 nM	–	–	99.8	–	–
[1], 0.3 µM	–	96	–	–	–
[1], 3 µM	–	94	–	–	–
[1], 10 µM	–	96	–	–	–
[1], 30 µM	–	91	–	–	–
[7], 0.3 µM	109	–	–	–	–
[7], 3 µM	101	–	–	–	–
[7], 10 µM	90	–	–	–	–
[7], 30 µM	91	–	–	–	–
[10], 0.3 µM	–	–	–	-0.36	–
[10], 3 µM	–	–	–	-0.27	–
[10], 10 µM	–	–	–	-0.07	–
[10], 30 µM	–	–	–	-0.09	–

drug-induced phospholipidosis [%], A549-ACE2 [9]
Settings	0.3 µM	0.833333 µM	3.33333 µM	6.66667 µM	10 µM	30 µM
24 h	3.42	26.9	57	74.1	90.2	107
48 h	4.24	11.7	45.3	55.7	59.6	55.3
72 h	4.76	5.3	35.3	56	56.2	54.6

Settings	drug sensitivity score	relative viability EC50 [µM]
Caco-2 [11]	–	> 10
Caco-2 [16]	0	–
Calu-3 [12]	–	> 10
Calu-3 [17]	0	–
HepG2 [13]	–	> 10
HepG2 [18]	0.3	–
U2OS [14]	–	> 10
U2OS [19]	0	–
Vero E6 [15]	–	> 10
Vero E6 [20]	0	–

Reference: the supplement of paper PMC13380429
